Results published in patent US20260365670A1, “EGFR INHIBITORS AND USES THEREOF” (DIZAL (JIANGSU) PHARMACEUTICAL CO., LTD., priority 2022, published 2026).
pIC50: −log10 of the molar value. Like-named read-outs stand apart in the source and are kept apart here.

How the values were obtained:
EGFR wild type = target: T1, EGFR wild type (Homo sapiens, UniProt P00533); experiment: Inhibition of EGFR wild type biochemical enzymatic activity (HTRF); details: EGFR WT, 1 mM ATP, 1 h, room temperature, read-out: IC50 (nM) @WT
T1 construct: purchased Carna Bio
In short: (§1)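 Read-out is the HTRF 665/615 nm ratio (excitation 320 nm), taken as proportional to kinase activity after a 1 h room-temperature reaction with 1 mM ATP and 1 μM biotinylated TK substrate. IC50 values derive from four-parameter logistic fitting.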

EGFR L858R = target: T2, EGFR L858R (Homo sapiens, UniProt P00533, L858R); experiment: Inhibition of EGFR L858R biochemical enzymatic activity (HTRF); details: 1 mM ATP, 1 h, room temperature, read-out: IC50 (nM) @L858R
T2 construct: purchased Carna Bio
In short: as §1

EGFR L858R/T790M = target: T3, EGFR L858R/T790M (Homo sapiens, UniProt P00533, L858R/T790M); experiment: Inhibition of EGFR L858R/T790M biochemical enzymatic activity (HTRF); details: EGFR L858R-T790M, 1 mM ATP, 1 h, room temperature, read-out: IC50 (nM) @L858R-T790M
T3 construct: purchased Carna Bio
In short: as §1

EGFR Exon19Del = target: T4, EGFR Exon19Del (Homo sapiens, UniProt P00533, DEL746-750); experiment: Inhibition of EGFR Exon19Del biochemical enzymatic activity (HTRF); details: EGFR Del19, 1 mM ATP, 1 h, room temperature, read-out: IC50 @Del19
T4 construct: purchased Carna Bio
In short: as §1

EGFR Exon19Del/T790M = target: T5, EGFR Exon19Del/T790M (Homo sapiens, UniProt P00533, DEL746-750/T790M); experiment: Inhibition of EGFR Exon19Del/T790M biochemical enzymatic activity (HTRF); details: EGFR Del19-T790M, 1 mM ATP, 1 h, room temperature, read-out: IC50 (nM) @Del19-T790M
T5 construct: purchased Carna Bio
In short: as §1

EGFR[T790M/C797S/L858R] = target: T6, EGFR[T790M/C797S/L858R] (Homo sapiens, UniProt P00533, C797S/L858R/T790M); experiment: Inhibition of EGFR[T790M/C797S/L858R] biochemical enzymatic activity (HTRF); details: EGFR T790M-C797S-L858R, 1 mM ATP, 1 h, room temperature, read-out: IC50 (nM) @T790M- C797S - L858R
T6 construct: purchased Carna Bio
In short: as §1

[1] = target: T7, EGFR[T790M/C797S/d746-750] (Homo sapiens, UniProt P00533, C797S/DEL746-750/T790M); experiment: Inhibition of EGFR[T790M/C797S/d746-750] biochemical enzymatic activity (HTRF); details: EGFR T790M-C797S-Del19, 1 mM ATP, 1 h, room temperature, read-out: IC50 (nM) @T790M - C797S - Del19
T7 construct: purchased Carna Bio
In short: as §1

EGFR (d746-750 C797S) = target: T8, EGFR (d746-750 C797S) (Homo sapiens, UniProt P00533, C797S/DEL746-750); experiment: Inhibition of EGFR (d746-750 C797S) biochemical enzymatic activity (HTRF); details: EGFR Del19-C797S, 1 mM ATP, 1 h, room temperature, read-out: IC50 (nM) @Del19-C797S
T8 construct: purchased signalchem
In short: as §1

EGFR (C797S L858R) = target: T9, EGFR (C797S L858R) (Homo sapiens, UniProt P00533, C797S/L858R); experiment: Inhibition of EGFR (C797S L858R) biochemical enzymatic activity (HTRF); details: EGFR L858-C797S, 1 mM ATP, 1 h, room temperature, read-out: IC50 (nM) @L858-C797S
T9 construct: purchased signalchem
In short: as §1

[2] = test system: Ba/F3 cells expressing EGFR mutations; experiment: Cell proliferation assay, Ba/F3 cells expressing EGFR mutations (CellTiter-Glo, 72 hours); format: cell-based; details: Mus musculus, BaF3, 72 h
In short: (§2)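 Ba/F3 cells carrying EGFR mutants (5000/well) or PC-9 cells (500/well) in RPMI1640 were dosed with compound series after overnight attachment and grown 72 h. Viability read by CellTiter-Glo, with day-0 counts subtracted; GI50 from curve fits of % proliferation versus DMSO control.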

PC-9 = experiment: Cell proliferation assay, PC-9 cells (CellTiter-Glo, 72 hours); format: cell-based; details: Homo sapiens, PC-9, 72 h, PC9 cells
In short: as §2

A-431 [3] = experiment: Cell proliferation assay, A-431 cells (GI50, Table 6); format: cell-based; details: Homo sapiens, A-431, A-431 cells
Procedure: [Worded in the source for another cell line; this cell line is reported under the same test.] Ba/F3 cells expressing EGFR mutations were seeded in 384-well plates at 5000 cells/well in RPMI1640 medium containing […]. PC-9 at 500 cells/well was seeded into 384-well plates in RPMI1640 medium with 10% FBS. After overnight incubation, the assay plates were dosed with compounds at a series of concentrations. Alongside dosing the assay plates, the day 0 plate was processed using CellTiter-Glo® Luminescent Cell Viability Assay (Promega) to measure the number of viable cells (G0). The assay plates were further incubated for 72 hours and the number of viable cells (G3) was measured. The percentage of proliferation was calculated as: […]=100×(G3 value of sample well−G0 value)/(G3 value of DMSO control−G0 value). The concentration of compound producing 50% proliferation inhibition (GI50) was further calculated in best-fit curves using XLFit software. N/A=not available.

A-431 [4] = experiment: Cell proliferation GI50, A-431 cells (Table 6); format: cell-based; details: Homo sapiens, A-431, A-431 cells

T3 sequence (P00533 25-1210 T790M/L858R): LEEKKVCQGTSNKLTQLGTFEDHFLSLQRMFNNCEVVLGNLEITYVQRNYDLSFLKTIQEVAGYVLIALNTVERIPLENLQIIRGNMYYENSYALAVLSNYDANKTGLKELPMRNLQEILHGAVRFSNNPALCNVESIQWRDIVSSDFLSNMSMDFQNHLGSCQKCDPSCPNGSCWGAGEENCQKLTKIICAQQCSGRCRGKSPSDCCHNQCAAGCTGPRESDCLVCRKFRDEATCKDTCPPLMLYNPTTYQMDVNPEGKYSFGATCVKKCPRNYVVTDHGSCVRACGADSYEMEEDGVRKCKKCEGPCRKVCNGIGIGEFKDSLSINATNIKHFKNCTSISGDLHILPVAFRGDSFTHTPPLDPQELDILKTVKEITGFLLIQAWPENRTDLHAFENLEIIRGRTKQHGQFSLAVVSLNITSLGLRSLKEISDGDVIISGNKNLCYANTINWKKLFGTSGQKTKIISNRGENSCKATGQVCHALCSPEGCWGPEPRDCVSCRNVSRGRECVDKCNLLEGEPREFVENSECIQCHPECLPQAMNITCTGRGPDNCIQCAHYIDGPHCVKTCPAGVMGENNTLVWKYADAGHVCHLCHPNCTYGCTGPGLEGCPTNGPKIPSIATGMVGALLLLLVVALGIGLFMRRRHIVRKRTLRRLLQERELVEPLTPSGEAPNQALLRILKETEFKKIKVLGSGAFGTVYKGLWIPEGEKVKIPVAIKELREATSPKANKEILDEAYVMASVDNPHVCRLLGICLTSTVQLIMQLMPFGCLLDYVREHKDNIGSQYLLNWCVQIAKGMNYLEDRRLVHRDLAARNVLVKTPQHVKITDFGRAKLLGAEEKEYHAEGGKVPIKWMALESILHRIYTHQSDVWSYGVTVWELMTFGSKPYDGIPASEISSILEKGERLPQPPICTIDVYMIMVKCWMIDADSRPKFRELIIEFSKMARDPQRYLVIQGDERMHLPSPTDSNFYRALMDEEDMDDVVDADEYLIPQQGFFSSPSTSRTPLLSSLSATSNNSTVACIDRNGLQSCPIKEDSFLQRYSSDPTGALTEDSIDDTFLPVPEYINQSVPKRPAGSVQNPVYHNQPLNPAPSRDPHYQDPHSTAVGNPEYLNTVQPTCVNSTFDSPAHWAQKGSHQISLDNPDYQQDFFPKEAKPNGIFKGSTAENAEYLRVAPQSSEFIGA
T7 sequence (P00533 with tags, fused parts or gaps DEL746-750/T790M/C797S limits assumed): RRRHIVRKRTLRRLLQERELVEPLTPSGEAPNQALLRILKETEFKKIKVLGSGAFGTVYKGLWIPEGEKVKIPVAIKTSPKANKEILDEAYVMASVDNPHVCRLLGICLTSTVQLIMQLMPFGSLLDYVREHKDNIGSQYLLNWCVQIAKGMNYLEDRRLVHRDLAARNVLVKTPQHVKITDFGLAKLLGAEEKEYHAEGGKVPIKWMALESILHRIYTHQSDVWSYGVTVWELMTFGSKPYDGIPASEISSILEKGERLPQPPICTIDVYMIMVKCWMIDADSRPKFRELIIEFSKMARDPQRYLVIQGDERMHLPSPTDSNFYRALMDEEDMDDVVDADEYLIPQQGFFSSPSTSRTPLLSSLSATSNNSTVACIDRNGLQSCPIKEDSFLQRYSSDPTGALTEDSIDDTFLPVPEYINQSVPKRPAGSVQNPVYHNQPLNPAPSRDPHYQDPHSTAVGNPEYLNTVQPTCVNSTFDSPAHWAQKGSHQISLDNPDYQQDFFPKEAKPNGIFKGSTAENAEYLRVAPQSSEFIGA
T9 sequence (P00533 25-1210 C797S/L858R): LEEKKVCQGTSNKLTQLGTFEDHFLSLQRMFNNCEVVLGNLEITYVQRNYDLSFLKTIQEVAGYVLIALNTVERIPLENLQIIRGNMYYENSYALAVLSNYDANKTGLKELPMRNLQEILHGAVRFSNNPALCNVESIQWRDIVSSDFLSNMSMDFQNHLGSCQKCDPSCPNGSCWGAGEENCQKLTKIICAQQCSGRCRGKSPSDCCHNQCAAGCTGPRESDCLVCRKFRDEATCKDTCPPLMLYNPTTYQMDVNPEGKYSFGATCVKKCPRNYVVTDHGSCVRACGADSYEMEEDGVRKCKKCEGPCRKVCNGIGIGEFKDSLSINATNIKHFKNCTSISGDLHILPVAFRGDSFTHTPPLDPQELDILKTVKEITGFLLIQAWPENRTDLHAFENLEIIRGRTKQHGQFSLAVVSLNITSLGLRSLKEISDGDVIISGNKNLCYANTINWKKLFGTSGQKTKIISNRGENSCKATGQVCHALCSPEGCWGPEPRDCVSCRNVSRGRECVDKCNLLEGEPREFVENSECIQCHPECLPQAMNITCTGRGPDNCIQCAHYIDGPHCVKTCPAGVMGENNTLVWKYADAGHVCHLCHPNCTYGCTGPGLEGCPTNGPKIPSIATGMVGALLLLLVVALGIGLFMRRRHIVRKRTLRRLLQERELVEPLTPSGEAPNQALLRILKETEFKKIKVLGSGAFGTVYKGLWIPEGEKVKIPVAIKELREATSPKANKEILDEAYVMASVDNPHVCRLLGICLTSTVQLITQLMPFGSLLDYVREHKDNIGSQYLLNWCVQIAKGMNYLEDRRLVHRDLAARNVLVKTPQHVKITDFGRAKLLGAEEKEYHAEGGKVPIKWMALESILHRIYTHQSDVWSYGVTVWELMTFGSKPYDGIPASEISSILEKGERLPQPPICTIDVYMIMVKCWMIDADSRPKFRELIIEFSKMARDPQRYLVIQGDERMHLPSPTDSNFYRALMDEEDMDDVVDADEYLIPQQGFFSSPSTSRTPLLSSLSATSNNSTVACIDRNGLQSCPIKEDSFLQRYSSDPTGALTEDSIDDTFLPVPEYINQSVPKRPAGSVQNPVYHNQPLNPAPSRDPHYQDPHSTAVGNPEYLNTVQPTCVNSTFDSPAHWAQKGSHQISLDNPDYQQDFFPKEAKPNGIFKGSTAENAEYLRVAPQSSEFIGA
T4 sequence (P00533 with tags, fused parts or gaps DEL746-750 limits assumed): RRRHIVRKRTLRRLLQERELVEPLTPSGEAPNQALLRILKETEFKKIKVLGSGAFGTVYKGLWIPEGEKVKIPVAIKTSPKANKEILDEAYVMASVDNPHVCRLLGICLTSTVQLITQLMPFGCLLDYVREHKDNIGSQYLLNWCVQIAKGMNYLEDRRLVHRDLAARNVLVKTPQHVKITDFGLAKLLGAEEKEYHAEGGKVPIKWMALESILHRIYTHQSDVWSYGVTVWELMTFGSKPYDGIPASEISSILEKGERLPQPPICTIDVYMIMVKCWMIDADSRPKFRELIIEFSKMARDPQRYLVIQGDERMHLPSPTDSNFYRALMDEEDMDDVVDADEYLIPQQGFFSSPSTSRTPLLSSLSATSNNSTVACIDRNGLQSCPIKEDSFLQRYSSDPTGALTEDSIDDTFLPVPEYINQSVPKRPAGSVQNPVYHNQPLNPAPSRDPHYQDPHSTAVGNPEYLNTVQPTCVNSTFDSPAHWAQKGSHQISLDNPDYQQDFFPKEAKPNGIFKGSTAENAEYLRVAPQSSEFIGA
T1 sequence (P00533 25-1210): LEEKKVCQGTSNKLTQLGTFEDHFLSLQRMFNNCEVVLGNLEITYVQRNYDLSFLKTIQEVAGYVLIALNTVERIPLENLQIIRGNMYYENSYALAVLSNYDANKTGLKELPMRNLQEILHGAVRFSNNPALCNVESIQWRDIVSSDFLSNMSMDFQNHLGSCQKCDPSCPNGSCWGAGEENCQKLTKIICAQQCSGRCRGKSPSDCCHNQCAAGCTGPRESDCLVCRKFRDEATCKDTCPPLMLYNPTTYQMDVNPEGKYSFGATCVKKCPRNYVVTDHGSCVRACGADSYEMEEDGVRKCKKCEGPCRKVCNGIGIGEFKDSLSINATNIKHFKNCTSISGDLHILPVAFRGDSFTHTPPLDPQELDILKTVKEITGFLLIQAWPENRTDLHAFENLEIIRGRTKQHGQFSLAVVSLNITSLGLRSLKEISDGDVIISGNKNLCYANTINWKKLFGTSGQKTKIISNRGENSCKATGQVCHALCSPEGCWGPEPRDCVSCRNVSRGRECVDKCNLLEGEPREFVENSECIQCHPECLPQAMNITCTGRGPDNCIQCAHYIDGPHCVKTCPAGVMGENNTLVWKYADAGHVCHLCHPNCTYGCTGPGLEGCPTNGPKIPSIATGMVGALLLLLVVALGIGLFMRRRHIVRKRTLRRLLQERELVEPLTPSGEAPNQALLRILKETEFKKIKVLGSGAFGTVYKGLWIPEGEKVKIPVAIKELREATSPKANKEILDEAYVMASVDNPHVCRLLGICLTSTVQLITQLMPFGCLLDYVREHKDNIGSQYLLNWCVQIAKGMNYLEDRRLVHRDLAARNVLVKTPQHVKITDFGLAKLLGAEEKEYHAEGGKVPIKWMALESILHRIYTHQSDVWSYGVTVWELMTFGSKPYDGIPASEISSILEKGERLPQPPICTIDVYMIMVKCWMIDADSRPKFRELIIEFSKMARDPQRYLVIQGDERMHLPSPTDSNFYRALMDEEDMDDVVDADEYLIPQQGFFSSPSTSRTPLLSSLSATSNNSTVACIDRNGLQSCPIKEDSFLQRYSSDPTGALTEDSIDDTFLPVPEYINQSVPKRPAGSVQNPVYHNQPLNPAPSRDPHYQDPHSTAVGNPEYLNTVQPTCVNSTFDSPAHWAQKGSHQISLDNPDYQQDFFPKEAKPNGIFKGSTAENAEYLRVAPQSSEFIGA

| IC50 (EGFR wild type) [nM] | IC50 (EGFR L858R) [nM] | IC50 (EGFR L858R/T790M) [nM] | pIC50 (EGFR Exon19Del) | IC50 (EGFR Exon19Del/T790M) [nM] | IC50 (EGFR[T790M/C797S/L858R]) [nM] | IC50 [1] [nM] | IC50 (EGFR (d746-750 C797S)) [nM] | IC50 (EGFR (C797S L858R)) [nM] | Structure (SMILES) | also measured |
| --- | --- | --- | --- | --- | --- | --- | --- | --- | --- | --- |
| 3640 | 110 | 61 | 8.06 | 7.4 | 11 | 2.9 | 3.2 | 37 | Cn1ncc2c1OCCN1CC3CCC(C3)(C1)n1c(nc3cc(F)c(N4CCOCC4)cc31)NC(=O)c1cc-2c(=O)n(C)c1 (single isomer, unassigned) [Example A118B] | GI50 ([2]; BaF3 cells, EGFR DEL19 - C797S, read-out: GI50 DEL19 - C797S/BaF3): 0.68 nM; GI50 ([2]; BaF3 cells, EGFR DEL19 - T790-C797S, read-out: GI50 DEL19 - T790-C797S/BaF3): 4.1 nM; GI50 ([2]; BaF3 cells, EGFR L858R - C797S, read-out: GI50 L858R - C797S/BaF3): 8.2 nM; GI50 ([2]; BaF3 cells, EGFR L858R - T790-C797S, read-out: GI50 L858R - T790-C797S/BaF3): 6.7 nM; GI50 ([2]; BaF3 cells, EGFR L858R - T790M, read-out: GI50 L858R - T790M/BaF3): 19 nM; GI50 ([2]; BaF3 cells, EGFR L858R, read-out: GI50 L858R/BaF3): 3.8 nM; GI50 ([2]; EGFR DEL19 - T790M, read-out: GI50 DEL19 - T790M): 1.8 nM; GI50 (PC-9; read-out: GI50 PC9): 16 nM; GI50 (A-431 [3]): 1120 nM |
| > 5000 | 168 | 65 | 8.13 | 1.8 | 20 | 1.3 | 5.4 | 68 | C[C@@H]1CCCOc2c(cnn2C)-c2cc(cn(C)c2=O)C(=O)Nc2nc3ccc4c(c3n2C1)CCN(C)C4 [Example A103, (11R)-5,11,18,30-tetramethyl-7-oxa-4,5,13,18,24,26,30-heptaazahexacyclo[26.3.1.0^{2,6}.0^{13,25}.0^{14,23}.0^{15,20}]dotriaconta-1(32),2(6),3,14,20,22,24,28-octaene-27,31-dione] | GI50 ([2]; BaF3 cells, EGFR DEL19-C797S, CellTiter-Glo, read-out: DEL19-C797S/BaF3 GI50): 2.7 nM; GI50 ([2]; BaF3 cells, EGFR DEL19-T790-C797S, CellTiter-Glo, read-out: DEL19-T790-C797S/BaF3 GI50): 7 nM; GI50 ([2]; BaF3 cells, EGFR L858R, CellTiter-Glo, read-out: L858R/BaF3 GI50): 26 nM; GI50 ([2]; BaF3 cells, EGFR L858R-C797S, CellTiter-Glo, read-out: L858R-C797S/BaF3 GI50): 17 nM; GI50 ([2]; BaF3 cells, EGFR L858R-T790-C797S, CellTiter-Glo, read-out: L858R-T790-C797S/BaF3 GI50): 10 nM; GI50 ([2]; BaF3 cells, EGFR L858R-T790M, CellTiter-Glo, read-out: L858R-T790M/BaF3 GI50): 72 nM; GI50 ([2]; EGFR DEL19-T790M, CellTiter-Glo, read-out: DEL19-T790M GI50): 18 nM; GI50 (PC-9; CellTiter-Glo, read-out: PC9 GI50): 32 nM; GI50 (A-431 [4]): 1680 nM |
